Test results as given in publication PMC11472310, “Distinctive Immune Signatures Driven by Structural Alterations in Desmuramylpeptide NOD2 Agonists” (Journal of Medicinal Chemistry, 2024).
In brackets after ≈: the same amount, converted by molar mass. Where two headings read alike, the source gives them in different places.

Assays:
[1] = Kinetic solubility (method of Hoelke et al.); type: physicochemical
From the text: Park et al. have shown that the degree of saturation of fatty acids exerts a profound impact on permeability of fatty acylated peptides—a higher degree of unsaturation results in higher permeability.[43] PUFA can also induce significant biophysical perturbations upon incorporation into membrane phospholipids.[67],[68] […] Given that the hydrophobicity of fatty acyl residues in general reduces as the number of unsaturated sites increases,[69],[70] we decided to ascertain how such structural modifications translate to the kinetic solubility of the molecule as a whole. […] The acylation with PUFA thus provides an elegant, albeit counterintuitive, approach, by which permeability of the molecule as a whole as well as its capacity for liposomal encapsulation can be enhanced without completely abolishing its aqueous solubility.

[2] = biological target: T1, hNOD2 (Homo sapiens, UniProt Q9HC29); assay: HEK-Blue NOD2 cell line reporter assay (NF-κB-inducible SEAP); type: cell-based
T1 construct: host or cells: HEK-Blue NOD2 cells (HEK293)
Description: To assess the NOD2 agonistic potential of the synthesized desmuramylpeptides at a cellular level, we employed the HEK-Blue NOD2 cell line reporter assay, a validated and commercially available method. All synthesized compounds were evaluated for their dose-dependent activities to establish their EC50 values.
The HEK-Blue NOD1 and NOD2 cell line reporter assay was generated from HEK293 cells through cotransfection of the hNOD1 or hNOD2 gene, respectively, along with an NF-κB-inducible secreted embryonic alkaline phosphatase (SEAP) reporter gene. Upon activation of NOD1 or NOD2, NF-κB triggers the production of SEAP, which can be quantitatively measured colorimetrically. […] After 18 h of incubation at 37 °C with 5% CO2, SEAP activity was measured spectrophotometrically by absorbance at 630 nm (BioTek Synergy microplate reader; Winooski, VT, USA). EC50 values were determined using Prism software (version 9; GraphPad Software, CA, USA). Each experiment was conducted in duplicate and repeated in at least two independent biological replicates.

[3] = tested on: human PBMCs; assay: Cytokine release from peripheral blood mononuclear cells (LEGENDplex panel); type: cell-based; settings: 18 h
From the text: The immunomodulatory effects of the selected desmuramylpeptides were examined in human primary peripheral blood mononuclear cells (PBMCs). This diverse mixture of immune cells provided a platform to investigate the effects of these NOD2 agonists within a physiologically relevant environment, encompassing other NOD2-interacting and downstream signaling proteins. […] Given that NOD2 activation often modulates the Toll-like receptor (TLR)-induced cytokine responses, we investigated the impact of combining desmuramylpeptides with lipopolysaccharide (LPS), a well-known TLR4 agonist, on cytokine secretion.[76]−[78]
The elicited cytokine profiles thus broadly reflect the structure–activity relationships obtained in the reporter gene assays.
Peripheral blood mononuclear cells were plated at a density of 1 × 10^6 cells/mL in 48-well plates containing 500 μL of growth medium. Cells were then treated with the compounds (2 μM) or the corresponding vehicle (0.1% DMSO), both in the absence and presence of LPS (10 ng/mL). Following an 18 h incubation period at 37 °C with 5% CO2, cell-free supernatants were collected and stored at −80 °C until analysis. […] Standard curves were constructed using recombinant cytokines provided in the kit. Data analysis was performed using Biolegend software Qognit and Prism (GraphPad, San Diego, CA, USA) software. The experiments were independently replicated four times. Statistical significance was determined using two-way analysis of variance (ANOVA) followed by Tukey’s multiple comparisons test.

[4] = tested on: K562 cancer cells; assay: PBMC cytotoxicity against K562 cancer cells (flow cytometry); type: cell-based; settings: for cytotoxicity of PBMCs against K562 cells, cotreatment with LPS (relative to negative control) / Cytotoxicity (ratio to control), + LPS: 10 μM + LPS 1 μg/mL; for cytotoxicity of PBMCs against K562 cells, cotreatment with LPS (relative to negative control) / enhancement of cytotoxicity of PBMCs against K562 cells (relative to negative control): 18 h, then 4 h coincubation; for cytotoxicity of PBMCs against K562 cells, cotreatment with LPS (relative to negative control): 40:1; for Cytotoxicity (ratio to control), + LPS / Cytotoxicity (ratio to control): Table S2; for Cytotoxicity (ratio to control) / enhancement of cytotoxicity of PBMCs against K562 cells (relative to negative control): alone: compounds 10 μM, LPS 1 μg/mL, IL-2 200 U/mL; for enhancement of cytotoxicity of PBMCs against K562 cells (relative to negative control): effector:target 40:1
Description: In this study, we investigated the potential of desmuramylpeptides, both alone and in combination with LPS, to enhance the cytotoxic activity of PBMCs against cancer cells employing a flow-cytometry-based cytotoxicity assay based on coincubation of preactivated PBMCs with fluorescently labeled K562 cancer cells.[82] Among the diverse subpopulations within PBMCs, natural killer (NK) cells play a pivotal role in detecting and eliminating cancer cells. NOD2-mediated NK cell activity against cancer cells arises from both direct NOD2 agonist elicited cytolytic activity of NK cells[83] and indirect activation through cytokine release by other NOD2-responsive cells, such as monocytes, which comprise approximately 10% of PBMCs; such interactions potentially reinforce the immune response.[84] […] To that end, we utilized the entire PBMC population as effector cells rather than isolated NK cells, to mimic conditions more closely resembling the in vivo environment while K562 chronic myelogenous leukemia cells were used as the target cells in a 40:1 effector to target cell ratio.[87]
(§1) The PBMC cytotoxicity assays utilizing K562 cells were conducted following previously established methods, with some adjustments.[82] […] Meanwhile, K562 cells were stained with CFSE (Invitrogen, Carlsbad, CA, USA), washed twice with complete medium, and then added (1 × 10^4 cells per well) to the pretreated PBMCs to achieve a final effector cell to target tumor cell ratio of 40:1. Following a 4-h coincubation period at 37 °C with 5% CO2, cells were stained with Sytox blue dead cell stain (Invitrogen) and analyzed using an Attune NxT flow cytometer (Thermo Fisher Scientific, Waltham, MA, USA) along with FlowJo software (Tree Star, Inc., Ashland, OR, USA). Cells positive for both CFSE and Sytox blue were designated as dead K562 cells. PBMCs alone and CFSE-labeled cancer cells alone were also exposed to the compounds at equivalent concentrations and stained with Sytox blue to assess any direct cytotoxic effects of the compounds on PBMCs and cancer cells separately. Each experiment was conducted in duplicate and repeated in three independent biological replicates. Statistical analysis was performed using one-way ANOVA followed by Dunnett’s multiple comparisons test.

[5] = tested on: PBMCs; assay: Direct cytotoxic effect of compounds on PBMCs (Sytox blue); type: cell-based; settings: Table S2; for Percent of dead PBMCs, + LPS: 10 μM + LPS 1 μg/mL; for Percent of dead PBMCs: alone: compounds 10 μM, LPS 1 μg/mL, IL-2 200 U/mL
Description: Additionally, PBMCs and cancer cells alone were treated with desmuramylpeptides to assess any direct cytotoxic effects on these cells.
as §1

[6] = HEK-Blue NOD2 cells, 18 h, NF-κB transcriptional activity (SEAP), read-out: EC50 (nM), NOD2 agonistic activity

T1 sequence (Q9HC29 whole entry): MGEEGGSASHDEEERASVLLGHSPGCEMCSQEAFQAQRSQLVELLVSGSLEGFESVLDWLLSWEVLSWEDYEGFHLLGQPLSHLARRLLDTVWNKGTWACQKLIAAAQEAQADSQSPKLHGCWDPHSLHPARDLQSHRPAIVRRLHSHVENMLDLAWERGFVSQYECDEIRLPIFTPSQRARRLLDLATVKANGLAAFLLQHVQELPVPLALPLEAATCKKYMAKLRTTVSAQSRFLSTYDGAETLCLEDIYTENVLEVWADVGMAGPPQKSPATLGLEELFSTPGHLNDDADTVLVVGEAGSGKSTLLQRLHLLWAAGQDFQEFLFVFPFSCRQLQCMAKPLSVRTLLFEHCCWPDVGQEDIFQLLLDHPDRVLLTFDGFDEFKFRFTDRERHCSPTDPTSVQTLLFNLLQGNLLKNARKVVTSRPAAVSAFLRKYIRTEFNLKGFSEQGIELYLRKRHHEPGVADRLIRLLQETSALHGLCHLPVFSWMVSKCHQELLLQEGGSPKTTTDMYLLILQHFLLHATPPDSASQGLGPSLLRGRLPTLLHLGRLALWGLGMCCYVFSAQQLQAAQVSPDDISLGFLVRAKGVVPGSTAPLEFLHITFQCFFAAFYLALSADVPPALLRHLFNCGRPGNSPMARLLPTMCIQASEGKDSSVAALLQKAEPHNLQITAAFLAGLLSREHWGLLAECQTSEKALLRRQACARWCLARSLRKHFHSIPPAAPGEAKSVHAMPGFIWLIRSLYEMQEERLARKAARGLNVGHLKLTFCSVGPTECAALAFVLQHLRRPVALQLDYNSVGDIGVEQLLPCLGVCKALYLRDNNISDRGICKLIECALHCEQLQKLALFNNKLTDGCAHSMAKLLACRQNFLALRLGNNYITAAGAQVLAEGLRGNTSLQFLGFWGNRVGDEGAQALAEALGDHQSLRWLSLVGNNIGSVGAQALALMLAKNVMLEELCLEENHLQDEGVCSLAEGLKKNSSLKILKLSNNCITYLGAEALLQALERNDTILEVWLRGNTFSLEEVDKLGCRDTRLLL

SMILES | solubility kinetic [1] [µM] | EC50 [2, 6] [nM] | Kinetic solubility [1] | levels of LPS-induced IL-10 ([3]; 2 μM + LPS 10 ng/mL) | cytotoxicity of PBMCs against K562 cells, cotreatment with LPS (relative to negative control) [4] [fold] | Cytotoxicity (ratio to control), + LPS [4] | Cytotoxicity (ratio to control) [4] | enhancement of cytotoxicity of PBMCs against K562 cells (relative to negative control) [4] | Percent of dead PBMCs, + LPS [5] | Percent of dead PBMCs [5] | also measured
CCOC(=O)CC[C@@H](NC(=O)[C@@H](NC(=O)CNC(=O)/C=C/c1ccc(O)c(OC)c1)C(C)C)C(=O)OCC [Compound 1] | 417 (≈ 223 µg/mL) |  |  |  |  |  |  |  |  |  | 
CCCCCCCCCCCC(=O)Oc1ccc(/C=C/C(=O)NCC(=O)N[C@H](C(=O)N[C@H](CCC(=O)OCC)C(=O)OCC)C(C)C)cc1OC [Compound 2] |  | 9.9 ± 0.69 | insoluble | amplified | 1.54 | 1.54 ± 0.08 | 1.00 ± 0.05 | no activity | 8.07% ± 0.47% | 0.96% ± 0.14% | boost of NOD2 agonist activity on incorporation into SLN/NLC ([2]; 2-loaded SLNs and NLCs versus free 2): 5 factor; EC50 ([2]; HEK-Blue NOD2 cell line, SLN and NLC formulations by melt-emulsification): 10.5 nM; production of MCP-1 and IFN-γ compared to the MDP/LPS combination ([3]; 2 μM + LPS 10 ng/mL): significantly diminished production; secretion of IL-1β, IL-10 and TGFβ compared to the MDP/LPS combination ([3]; 2 μM + LPS 10 ng/mL): increased secretion
CCCCCCCCCCCCCCCC(=O)Oc1ccc(/C=C/C(=O)NCC(=O)N[C@H](C(=O)N[C@H](CCC(=O)OCC)C(=O)OCC)C(C)C)cc1OC [Compound 9, Diethyl ((E)-3-(3-Methoxy-4-(palmitoyloxy)phenyl)acryloyl)glycyl-L-valyl-D-glutamate] |  | 382 ± 121 | insoluble |  |  |  |  |  |  |  | 
CCOC(=O)[C@@H](CCC(=O)NCCCNCCCCNCCCN)NC(=O)[C@@H](NC(=O)CNC(=O)/C=C/c1ccc(O)c(OC)c1)C(C)C [Compound 32, N^5-(3-((4-((3-Aminopropyl)amino)butyl)amino)propyl)-N^2-((E)-3-(4-hydroxy-3-methoxyphenyl)acryloyl)glycyl-L-valyl-D-glutaminate] |  | 8640 ± 1920 |  | opposite | 2.95 | 2.95 ± 0.41 | 1.10 ± 0.06 | devoid of the capacity to induce cytotoxicity | 7.20% ± 0.36% | 1.01% ± 0.22% | EC50 ([2]; HEK-Blue NOD2 cells, 18 h, read-out: EC50, NOD2 agonistic activity (text)): 8600 nM; amounts of IL-1β, IL-6, IL-10, TNF-α and IFN-γ compared to the MDP/LPS combination ([3]; 2 μM + LPS 10 ng/mL): lesser amounts; levels of secreted MCP-1 compared to the MDP/LPS combination ([3]; 2 μM + LPS 10 ng/mL): on par; production of proinflammatory cytokines and chemokines including IL-6, IL-8 and MCP-1 ([3]; 2 μM alone (no LPS)): smaller increases
CCOC(=O)[C@@H](CCC(=O)OCCN1CCOCC1)NC(=O)[C@@H](NC(=O)CNC(=O)/C=C/c1ccc(O)c(OC)c1)C(C)C [Compound 35, 1-Ethyl 5-(2-Morpholinoethyl) ((E)-3-(4-hydroxy-3-methoxyphenyl)acryloyl)glycyl-L-valyl-D-glutamate] | 209 (≈ 130 µg/mL) | 356 ± 24 |  |  |  |  |  |  |  |  | drop in activity compared to 1 ([2]; ethyl ester replaced with morpholinoethyl): 4 factor
CCOC(=O)CC[C@@H](NC(=O)[C@@H](NC(=O)CNC(=O)/C=C/c1cc(OC)c(O)c(OC)c1)C(C)C)C(=O)OCC [Compound 37, Diethyl ((E)-3-(4-Hydroxy-3,5-dimethoxyphenyl)acryloyl)glycyl-L-valyl-D-glutamate] | 321 (≈ 182 µg/mL) | 96.1 ± 51.5 |  |  |  |  |  |  |  |  | 
